Source: US6369066B1, “Substituted 1,3-oxathiolanes with antiviral properties” (BioChem Pharma, Inc., priority 1990, dated 2002)
Converted amounts (≈) assume the structure as drawn. Read-outs that look alike come from different tables or passages of the source.

Experiments:
Format in all cases: cell-based
MT-4 = assay: Cell culture inhibitory dose (CCID50) in MT-4; conditions: cell counting, trypan blue exclusion, 7 days post drug treatment
Description: (§1) Evaluation of Cell Culture Inhibitory Dose (CCID50)
(§2) Cell growth was determined by cell counting and viability by trypan blue exclusion 7 days post drug treatment. CCID50 is expressed as the drug concentration which inhibits 50% of cell growth.

HIV-1 IIIB = assay: IC50 in CBMCs with HIV-1 isolate IIIB; conditions: Human immunodeficiency virus 1
Description: (§3) In short, viruses (HTLV-IIIB) that had initially been grown on MT-4 cells were passaged onto phytohemaglutinin-prestimulated cord blood mononuclear cells (CBM). For subsequent analysis, samples of CBM (5×10^5 cells per mL) were pretreated with various concentrations of the different compounds for 4 h and were then inoculated with CBL-grown HIV-1 at a multiplicity of infection of 1.0 in the concentration of the compound used for the pretreatment. Fresh medium, including the appropriate concentration of the compound was added three times weekly, and fresh phytohemaglutinin-prestimulated CBM (5×10^5 cells per mL) were added at 2-day intervals. The calculation of IC50 was determined on the basis of RT levels in culture fluids as described in Gao et al., (1992), J. Virol. 66: 12-19.
(§4) Determination of IC50 (μM) in Different Mutated Isolates of HIV-1 in the Presence of Different Antiviral Compounds
(§5) The procedure is similar to the procedure used in the CBM assay, with the exception that constructed virus and construted mutated virus were used.

[1] = tested on: HIV-1 HXB2D-65 K→R (ddC resistance mutation); assay: IC50 in CBMCs with constructed mutated virus HXB2D-65; conditions: Human immunodeficiency virus 1, read-out: IC50 HXB2D-65 K→R
Description: as §3, §4, §5
(§6) The constructed virus HXB2D-65 correspond to the ddC resistance mutation and the constructed virus HXB2D-184 correspond to the 3TC™ and FTC resistance mutation.

HIV-1 (strain RF) = assay: Inhibition of syncytium formation in C8166 cells
Description: Inhibition of Syncytium Formation
C8166 cells were infected with HIV-1 (strain RF) at a moil of 1×10^−3 infectious units/cell and adsorbed at room temperature for 60 minutes. After adsorption, the cells were washed three times in growth medium. Aliquots of 10^5 cells were added to each well of 24-well plates containing serial dilution of test compounds at final concentrations of 50 μg/ml to 0.05 μg/ml in RPMI® 1640 growth medium. Untreated infected cells and untreated uninfected cells were also included as controls. The plates were incubated at 37° C./5% CO2 for 3-4 days in humidified containers. The cells were examined daily for evidence of HIV-1 induced syncytium formation. The syncytia were quantified by reference to the untreated infected controls, and the dose of compound required to reduce the cytopathic effect by 50% (ID50) was calculated.

U937 = assay: Cell culture inhibitory dose (CCID50) in U937; conditions: cell counting, trypan blue exclusion, 7 days post drug treatment
Description: as §1, §2

HIV-1 HXB2D = assay: IC50 in CBMCs with constructed virus HXB2D; conditions: Human immunodeficiency virus 1, read-out: IC50 HXB2D
Description: as §3, §4, §5, §6

MT-4 cells = assay: Formazan (MTT) assay, drug-induced cytotoxicity in uninfected MT-4 cells; conditions: human, 7 days
Description: Anti-HIV-1 antiviral activity was determined in MT-4 calls and MT-4 cells that have been made resistant to 3TC™. […] An uninfected cell suspension was prepared in parallel to evaluate drug-induced cytotoxicity. The two suspensions were incubated for 90 minutes at room temperature. Test compounds were serially diluted in 10-fold decrements from 100 μg/ml to 0.01 μg/ml (final concentrations in two 96 well microtitre plates. 20 μl of infected cell suspension were inoculated into each well of one of the plates (anti-viral), while 20 μl of uninfected cell suspension were added to each well of the second plate (cytotoxicity). The plates were then incubated for 7 days at 37° C. After incubation, 10 μl of 3-(4,5-dimethylthiazol-2-yl)-2,5-diphenyltetrazolium bromide (MTT) at 20 mg/ml was added to all wells and the plates incubated for a further 90 minutes at 37° C.
150 μl of 10% (v/v) alcoholic Triton X-100 was then added and the cells resuspended. After 15 minutes at room temperature, the plates were analyzed in a Multiskan MC reader at 405 nm. […] The optical density values for the cytotoxicity controls and the antiviral test wells were graphically plotted and the dose of compounds required to inhibit the conversion of MMT to 50% of the untreated uninfected controls was calculated.

C8166 cells = assay: Cytotoxicity (CD50) reported with syncytium formation assay; conditions: syncytium formation table
HIV-1 strain RF = assay: Formazan (MTT) assay on MT-4 cells, anti-HIV-1 antiviral activity; conditions: Human immunodeficiency virus 1, MT4, 168 h, MT-4 cells infected with HIV-1 strain RF, 7 days, read-out: IC50 (50% anti-viral dose, ID 50%)
Description: Formazan Assay on MT-4 and 3TC™-Resistant Cell Lines
Anti-HIV-1 antiviral activity was determined in MT-4 calls and MT-4 cells that have been made resistant to 3TC™. A suspension of cells (approximately 10^6 cells/ml) in RPMI 1640 growth medium was infected with HIV-1 strain RF at a M.O.I. of 10^−3 infectious units/cell. An uninfected cell suspension was prepared in parallel to evaluate drug-induced cytotoxicity. The two suspensions were incubated for 90 minutes at room temperature. Test compounds were serially diluted in 10-fold decrements from 100 μg/ml to 0.01 μg/ml (final concentrations in two 96 well microtitre plates. 20 μl of infected cell suspension were inoculated into each well of one of the plates (anti-viral), while 20 μl of uninfected cell suspension were added to each well of the second plate (cytotoxicity). The plates were then incubated for 7 days at 37° C. After incubation, 10 μl of 3-(4,5-dimethylthiazol-2-yl)-2,5-diphenyltetrazolium bromide (MTT) at 20 mg/ml was added to all wells and the plates incubated for a further 90 minutes at 37° C.
150 μl of 10% (v/v) alcoholic Triton X-100 was then added and the cells resuspended. After 15 minutes at room temperature, the plates were analyzed in a Multiskan MC reader at 405 nm. Conversion of yellow MMT to its formazan derivative is maximum in uninfected cells, and absent in untreated infected cells. The optical density values for the cytotoxicity controls and the antiviral test wells were graphically plotted and the dose of compounds required to inhibit the conversion of MMT to 50% of the untreated uninfected controls was calculated. In this way, both the 50% cytotoxic dose (CD 50%) and the 50% anti-viral dose (ID 50%) can be calculated.

Jurkat = assay: Cell culture inhibitory dose (CCID50) in Jurkat; conditions: cell counting, trypan blue exclusion, 7 days post drug treatment
Description: as §1, §2

CBMCs = assay: Cell culture inhibitory dose (CCID50) in CBMCs; conditions: cell counting, trypan blue exclusion, 7 days post drug treatment
Description: as §1, §2

HIV-1 (HTLV-IIIB) = assay: CBM assay, IC50 from RT levels in culture fluids; conditions: Human immunodeficiency virus 1
Description: Assays on cord blood mononuclear cells were done substantially as described in Gu et al., J. Virol. (1992), 66:7128-7135.
as §3

[2] = Human immunodeficiency virus 1, C8166 cells, HIV-1 strain RF, syncytium formation, 3-4 days, read-out: IC50 (dose reducing the cytopathic effect by 50%, ID50)

SMILES	CCID50 MT-4 (MT-4)	IC50 (HIV-1 IIIB)	IC50 [1]	IC50 (HIV-1 (strain RF); Human immunodeficiency virus 1, C8166, read-out: IC50 (dose reducing the cytopathic effect by 50%, ID50))	CCID50 U937 (U937)	IC50 (HIV-1 HXB2D)	CD50 (50% cytotoxic dose) (MT-4 cells)	CD50 (C8166 cells)	IC50 (HIV-1 strain RF)	CCID50 Jurkat (Jurkat)	CCID50 CBMCs (CBMCs)	IC50 (HIV-1 (HTLV-IIIB))	IC50 (HIV-1 (strain RF); [2])
Nc1ccn([C@@H]2CO[C@H](CO)S2)c(=O)n1 [Compound #2, 2S-hydroxymethyl-4S-(cytosin-1′-yl)-1,3-oxathiolane]	>500 µM	0.28 µM	3.5 µM	0.08 µg/mL (≈ 0.349 µM)	22 µM	0.1 µM	>100 µg/mL	>100 µg/mL	4.4 µg/mL (≈ 19.2 µM)	11 µM	105 µM	0.03 to 1.22 µg/mL (≈ 0.131 to 5.32 µM)	
Nc1nc(=O)n([C@H]2CO[C@@H](CO)S2)cc1F [compound 3, 2R-hydroxymethyl-4R-(5′-fluorocytosin-1′-yl)-1,3-oxathiolane]	>500 µM	0.83 µM	11.5 µM		>500 µM	3 µM	>100 µg/mL	>100 µg/mL	6 µg/mL (≈ 24.3 µM)	>500 µM	>500 µM	0.002 to 0.05 µg/mL (≈ 0.00809 to 0.202 µM)	0.17 µg/mL (≈ 0.688 µM)
Nc1nc(=O)n([C@@H]2CO[C@H](CO)S2)cc1F [compound 4, 2S-hydroxymethyl-4S-(5′-fluorocytosin-1′-yl)-1,3-oxathiolane]	>500 µM	0.34 µM	6.5 µM		>500 µM	3 µM	100 µg/mL	>100 µg/mL	2.9 µg/mL (≈ 11.7 µM)	>500 µM	>500 µM	0.02 to 0.05 µg/mL (≈ 0.0809 to 0.202 µM)	0.03 µg/mL (≈ 0.121 µM)
